PubChem BioAssay (NCI)
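Results reflect a 48-hour exposure of cells in 96-well plates to compound at five concentrations. GI50 marks 50% less growth. TGI is the concentration that stops growth completely.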

Experiments:
Experiment in all cases: DTP human tumour cell line panel, 48 h
[1] = system: 786-0 renal
[2] = system: A498 renal
[3] = system: A549 NSCLC
[4] = system: ACHN renal
[5] = system: BT-549 breast
[6] = system: CAKI-1 renal
[7] = system: CCRF-CEM leukemia
[8] = system: COLO 205 colon
[9] = system: DU-145 prostate
[10] = system: EKVX NSCLC
[11] = system: HCC-2998 colon
[12] = system: HCT-116 colon
[13] = system: HCT-15 colon
[14] = system: HL-60(TB) leukemia
[15] = system: HOP-62 NSCLC
[16] = system: HOP-92 NSCLC
[17] = system: HS 578T breast
[18] = system: HT29 colon
[19] = system: IGROV1 ovarian
[20] = system: K-562 leukemia
[21] = system: KM12 colon
[22] = system: LOX IMVI melanoma
[23] = system: M14 melanoma
[24] = system: MALME-3M melanoma
[25] = system: MCF7 breast
[26] = system: MDA-MB-231 breast
[27] = system: MDA-MB-435
[28] = system: MOLT-4 leukemia
[29] = system: NCI-H226 lung
[30] = system: NCI-H23 lung
[31] = system: NCI-H460 lung
[32] = system: NCI-H522 lung
[33] = system: NCI/ADR-RES ovarian
[34] = system: OVCAR-3 ovarian
[35] = system: OVCAR-4 ovarian
[36] = system: OVCAR-5 ovarian
[37] = system: OVCAR-8 ovarian
[38] = system: PC-3 prostate
[39] = system: RPMI-8226 leukemia
[40] = system: SF-268 CNS
[41] = system: SF-295 CNS
[42] = system: SF-539 CNS
[43] = system: SK-MEL-2 melanoma
[44] = system: SK-MEL-28 melanoma
[45] = system: SK-MEL-5 melanoma
[46] = system: SK-OV-3 ovarian
[47] = system: SN12C renal
[48] = system: SNB-19 CNS
[49] = system: SNB-75 CNS
[50] = system: SR leukemia
[51] = system: SW-620 colon
[52] = system: T-47D breast
[53] = system: TK-10 renal
[54] = system: U251 CNS
[55] = system: UACC-257 melanoma
[56] = system: UACC-62 melanoma
[57] = system: UO-31 renal
[58] = system: RXF 393 renal

O=C1OCC2=C1C(c1ccccc1)c1cc3c(cc1N2)OCO3 (stereo not drawn)
GI50 [1]: 0.055 µM | TGI [1]: > 69.3 µM | GI50 [2]: 0.0159 µM | TGI [2]: 0.498 µM | GI50 [3]: 0.0375 µM | TGI [3]: > 56.4 µM | GI50 [4]: 0.0946 µM | TGI [4]: 36.4 µM | GI50 [5]: 0.0441 µM | TGI [5]: 4.97 µM | GI50 [6]: 0.439 µM | TGI [6]: > 62.9 µM | GI50 [7]: 0.039 µM | TGI [7]: > 100 µM | GI50 [8]: 0.0261 µM | TGI [8]: 0.0703 µM | GI50 [9]: 0.0443 µM | TGI [9]: > 100 µM | GI50 [10]: 2.29 µM | TGI [10]: > 100 µM | GI50 [11]: 0.0333 µM | TGI [11]: > 38.7 µM | GI50 [12]: 0.0352 µM | TGI [12]: > 100 µM | GI50 [13]: 0.0373 µM | TGI [13]: > 53.1 µM | GI50 [14]: 0.0214 µM | TGI [14]: 0.0573 µM | GI50 [15]: 0.0462 µM | TGI [15]: 33.4 µM | GI50 [16]: 0.141 µM | TGI [16]: 7.63 µM | GI50 [17]: 0.0469 µM | TGI [17]: > 84.4 µM | GI50 [18]: 0.0351 µM | TGI [18]: > 59 µM | GI50 [19]: 0.0816 µM | TGI [19]: 50.2 µM | TGI [20]: 32.7 µM | GI50 [21]: < 0.0167 µM | GI50 [22]: 0.042 µM | TGI [22]: > 100 µM | GI50 [23]: 0.0276 µM | TGI [23]: > 100 µM | GI50 [24]: 14.1 µM | TGI [24]: > 100 µM | GI50 [25]: 0.0316 µM | TGI [25]: 17.3 µM | GI50 [26]: 0.046 µM | TGI [26]: > 74.7 µM | TGI [27]: 0.026 µM | GI50 [28]: 0.036 µM | GI50 [29]: 0.0245 µM | TGI [29]: 0.0742 µM | GI50 [30]: 0.0449 µM | TGI [30]: > 100 µM | GI50 [31]: 0.0354 µM | GI50 [32]: < 0.011 µM | TGI [32]: 1.56 µM | GI50 [33]: 0.0204 µM | TGI [33]: 1.62 µM | GI50 [34]: 0.0202 µM | TGI [34]: 0.0486 µM | GI50 [35]: 0.0823 µM | TGI [35]: > 48.3 µM | GI50 [36]: 0.0829 µM | TGI [36]: > 100 µM | GI50 [37]: 0.0437 µM | TGI [37]: > 48.2 µM | GI50 [38]: 0.0404 µM | TGI [38]: > 100 µM | GI50 [39]: 0.0571 µM | GI50 [40]: 0.0654 µM | TGI [40]: > 43.4 µM | GI50 [41]: 0.0169 µM | GI50 [42]: 0.0318 µM | TGI [42]: 9.3 µM | GI50 [43]: 0.494 µM | TGI [43]: 41.7 µM | GI50 [44]: 0.0428 µM | TGI [44]: > 100 µM | GI50 [45]: 0.0336 µM | TGI [45]: 0.234 µM | GI50 [46]: 0.0308 µM | TGI [46]: 1.39 µM | GI50 [47]: 0.0557 µM | TGI [47]: > 65 µM | GI50 [48]: 0.0568 µM | TGI [48]: > 100 µM | GI50 [49]: 0.0201 µM | TGI [49]: 1.16 µM | GI50 [50]: < 0.0115 µM | GI50 [51]: 0.037 µM | TGI [51]: > 100 µM | GI50 [52]: 5.14 µM | TGI [52]: > 100 µM | GI50 [53]: 11.4 µM | TGI [53]: > 100 µM | GI50 [54]: 0.0409 µM | TGI [54]: > 50.1 µM | GI50 [55]: 4.58 µM | TGI [55]: > 100 µM | GI50 [56]: 0.0328 µM | TGI [56]: > 100 µM | GI50 [57]: 0.332 µM | TGI [57]: > 100 µM

O=C1NC(=O)C(N2C(=O)c3ccccc3C2=O)CC1O (stereo not drawn)
GI50 [1]: > 100 µM | TGI [1]: > 100 µM | GI50 [2]: > 100 µM | TGI [2]: > 100 µM | GI50 [3]: > 100 µM | TGI [3]: > 100 µM | GI50 [4]: > 100 µM | TGI [4]: > 100 µM | GI50 [5]: > 100 µM | TGI [5]: > 100 µM | GI50 [6]: > 100 µM | TGI [6]: > 100 µM | GI50 [7]: > 100 µM | TGI [7]: > 100 µM | GI50 [8]: > 100 µM | TGI [8]: > 100 µM | GI50 [9]: > 100 µM | TGI [9]: > 100 µM | GI50 [10]: > 100 µM | TGI [10]: > 100 µM | GI50 [12]: > 100 µM | TGI [12]: > 100 µM | GI50 [13]: > 100 µM | TGI [13]: > 100 µM | GI50 [14]: > 100 µM | TGI [14]: > 100 µM | GI50 [15]: > 100 µM | TGI [15]: > 100 µM | GI50 [16]: > 100 µM | TGI [16]: > 100 µM | GI50 [17]: > 100 µM | TGI [17]: > 100 µM | GI50 [18]: > 100 µM | TGI [18]: > 100 µM | GI50 [19]: > 100 µM | TGI [19]: > 100 µM | GI50 [20]: > 100 µM | TGI [20]: > 100 µM | GI50 [21]: > 100 µM | TGI [21]: > 100 µM | GI50 [22]: > 100 µM | TGI [22]: > 100 µM | GI50 [23]: > 100 µM | TGI [23]: > 100 µM | GI50 [24]: > 100 µM | TGI [24]: > 100 µM | GI50 [25]: > 100 µM | TGI [25]: > 100 µM | GI50 [26]: > 100 µM | TGI [26]: > 100 µM | GI50 [27]: > 100 µM | TGI [27]: > 100 µM | GI50 [28]: > 100 µM | TGI [28]: > 100 µM | GI50 [29]: > 100 µM | TGI [29]: > 100 µM | GI50 [30]: > 100 µM | TGI [30]: > 100 µM | GI50 [31]: > 100 µM | TGI [31]: > 100 µM | GI50 [32]: > 100 µM | TGI [32]: > 100 µM | GI50 [33]: > 100 µM | TGI [33]: > 100 µM | GI50 [34]: > 100 µM | TGI [34]: > 100 µM | GI50 [35]: > 100 µM | TGI [35]: > 100 µM | GI50 [36]: > 100 µM | TGI [36]: > 100 µM | GI50 [37]: > 100 µM | TGI [37]: > 100 µM | GI50 [38]: > 100 µM | TGI [38]: > 100 µM | GI50 [39]: > 100 µM | TGI [39]: > 100 µM | GI50 [58]: > 100 µM | TGI [58]: > 100 µM | GI50 [40]: > 100 µM | TGI [40]: > 100 µM | GI50 [41]: > 100 µM | TGI [41]: > 100 µM | GI50 [42]: > 100 µM | TGI [42]: > 100 µM | GI50 [43]: > 100 µM | TGI [43]: > 100 µM | GI50 [44]: > 100 µM | TGI [44]: > 100 µM | GI50 [46]: > 100 µM | TGI [46]: > 100 µM | GI50 [47]: > 100 µM | TGI [47]: > 100 µM | GI50 [48]: > 100 µM | TGI [48]: > 100 µM | GI50 [49]: > 100 µM | TGI [49]: > 100 µM | GI50 [50]: > 100 µM | TGI [50]: > 100 µM | GI50 [51]: > 100 µM | TGI [51]: > 100 µM | GI50 [52]: > 100 µM | TGI [52]: > 100 µM | GI50 [53]: > 100 µM | TGI [53]: > 100 µM | GI50 [54]: > 100 µM | TGI [54]: > 100 µM | GI50 [55]: > 100 µM | TGI [55]: > 100 µM | GI50 [56]: > 100 µM | TGI [56]: > 100 µM | GI50 [57]: > 100 µM | TGI [57]: > 100 µM
